Data from patent publication US8858995B2, “Methods and compositions for controlled delivery of phytochemical agents” (priority 2008, dated 2014).
Where two headings read alike, the source gives them in different places. Each block holds one compound with its values, some of them ahead of it.

Tests used:
DBP-DNA adducts = assay: Dibenzo[a,I]pyrene (DBP)-DNA adducts in lung (32P-postlabeling); assay type: in vivo, A/J mice; conditions: two 1.5 cm coated implants; DBP implant; 3 weeks
Description: (§1) To assess the coated implants (i.e., where the compositions were in the form of coatings), in vivo studies were also performed. […] All groups of animals were also treated with dibenzo[a,I]pyrene (DBP) via polymeric implants (1-cm, 1.4 mm dia, 5% DBP load) at the same time. Implants were grafted subcutaneously, and animal were euthanized after 3 weeks. […] In both cases, animals were euthanized by CO2 asphyxiation and selected tissues (lung, liver and brain) were collected and stored at −80° C. until processing. Implants were also recovered, dried under vacuum and stored in amber vials under argon at 4° C. until analysis.
To analyze the formation of DNA adducts, DNA was isolated from lung tissue (200 mg) by treatment of the isolated crude nuclei with RNases and proteinase K, followed by extractions with phenol, phenol:Sevag and Sevag. DNA was recovered by ethanol precipitation and its concentration was measured spectrophotometrically considering 1 A260 equals 50 μg DNA. DNA adducts were analyzed by nuclease P1-mediated ^32P-postlabeling/TLC assay and expressed as adducts per 10^9 nucleotides.

[1] = system: human lung cancer A549 cell xenografts; assay: Human lung cancer xenograft inhibition by withaferin A; assay type: in vivo, athymic nude mice
Description: Additionally, to assess the effect of the implants on tumor xenografts, five- to six-week old female athymic nude mice (Harlan Laboratories, Indianapolis, Ind.) were acclimated for a week and then inoculated with human lung cancer (A549) cells (3×10^6 cells) in matrigel. […] Animals were weighed and the tumors were measured by a digital caliper weekly. At the end of 6 to 8 weeks, animals were euthanized by CO2 asphyxiation, tumors were collected and measured.

[2] = extruded implants
[3] = In vitro release from coated (and extruded) polymeric implants; assay type: physicochemical
Description: To formulate the “coated” polymeric implants, blank P-80 implants (1.4 mm dia) were then prepared by dissolving P-80:F68 (9:1) in dichloromethane, followed by evaporation of the solvent in a Petri dish under hood and extrusion of the molten polymer through a silastic tubing mold, similar to the methodologies described herein above. […] For coating, one end of the blank implant (2.5-3.5 cm) was inserted into a silastic tube plug (6 mm long, 1.4 mm dia) while the other end of the plug was attached with a pipet tip. Coatings were then added by dipping the blank implant into the solution with intermittent drying with cool air using a commercial hair dryer and placing them under hood. […] The assembly was placed under hood overnight to remove the residual DCM, implants were excised in 1 or 2 cm lengths and stored in amber vials under argon at -20° C. until used. The rate of in vitro release for the implants was subsequently measured. […] The vials were placed in a water bath (Julabo S W 23, Seelback, Germany) at 37° C. with constant agitation at 110 rpm. The medium was changed every 24 h.

[4] = mouse, sc
Description: as §1
The supernatants were diluted with ethanol:DCM (80:20) and their concentrations were measured spectrophotometrically at maximal absorbance and the concentrations were calculated against standard curves of individual compounds.

DNA adducts in the liver = assay: Liver DNA adducts after a bolus dose of dibenzo[a,1]pyrene (32P-postlabeling); assay type: in vivo, Sprague-Dawley rats; conditions: 2 cm PCL:cyclodextrin (9:1) matrix, 10% w/w; bolus dibenzo[a,1]pyrene; 5 days after carcinogen
Description: Eleven days later, the animals were treated with a bolus dose of dibenzo[a,1]pyrene. The animals were then euthanized 5 days after the carcinogen treatment and liver samples were collected.

breast cancer incidence = conditions: pre-menopausal women with a family history of breast cancer, high consumption; cited from earlier work
[5] = system: 17β-estradiol-induced mammary tumors; assay type: in vivo, ACI rats; conditions: for animals that developed palpable tumors: control 100% after 26 wks
Source text: Cancer chemoprevention approaches have been used to manipulate tumorigenesis and reduce the transformation of normal/pre-cancerous cells to malignancy. Many compounds that have worked in cell culture studies though have failed in animal models and clinical trials due to lack of bioavailability. Additionally, the high doses required to elicit biological response can be toxic. The following experiments were designed to test the hypothesis that the effective dose of phytochemical agents, administered systemically via implantation of a silastic implant incorporating the agents, can be reduced substantially compared with the traditional dietary route and were also designed to determine the effect of individual phytochemical agents on mammary carcinogenesis. The silastic implants used in the experiments described below were fabricated by filling silastic tubing with a desired agent. Although the silastic implants are not biodegradable like compositions disclosed herein comprising biocompatible polymeric matrices, the silastic implants provide proof of concept that a reduced dose of phytochemical agents administered systemically can be effective in inhibiting mammary carcinogenesis.
Initially, an experiment was performed by subcutaneously implanting individual phytochemical agents using a large number of animals per group (n=17-19). […] Two weeks later, all groups received 3 cm biocompatible silastic implants incorporating 27 mg of 17β-estradiol. Six months later, after all animals had developed mammary tumors, the animals were euthanized and the mammary tumors were counted and their size measured. […] However, 30-55% reductions were found in the tumor burden with all test agents (FIG. 23A) as measured by tumor volume, with ellagic acid resulting in the most significant reduction in tumor burden (55%). The foregoing results thus support the effectiveness of ellagic acid, a significant component in certain berries, as an exemplary phytochemical compound that can be administered via a biocompatible silastic implant to inhibit or reduce estrogen-induced ACI rat mammary carcinogenicity.
To further evaluate the effectiveness of ellagic acid in estrogen-induced mammary carcinogenicity and to determine whether the effective dose of ellagic acid administered systemically via a biocompatible silastic implant can be reduced substantially compared with the traditional dietary route, ellagic acid was administered either in the diet (400 ppm) or by subcutaneous implantation of a biocompatible silastic implant incorporating an effective amount of ellagic acid (27 mg/implant, 4 implants). […] All groups received diet and water ad libitum. The body weight and diet consumption were recorded weekly. The animals were palpated for mammary tumors, and were euthanized when the largest tumor reached >1 cm. The first tumor in the control group appeared after nearly 84 days. However, the first tumor appearance with ellagic acid implants or ellagic acid-supplemented diet was somewhat delayed by 2 and 3 weeks, respectively. The control group reached 100% tumor incidence after 26 wks, but only 75% or 69% of the animals developed palpable tumors in the groups that received ellagic acid by implants or diet, respectively. […] Similar reductions were also observed in the tumor multiplicity (4.00±0.63 and 4.80±0.4 tumors/rat with implant and diet, respectively versus 6.77±0.87 in the control group) (FIG. 24A).
The total amount of ellagic acid administered during the entire duration of the study by diet was 800 mg/rat while the subcutaneous implantation of the biocompatible silastic implant incorporating ellagic acid delivered only 1.48±0.87 mg per implant, as determined by HPLC measurement of the material left in implants recovered after termination.

[6] = Tissue curcuminoid levels after coated implants (UPLC); assay type: in vivo, A/J mice; conditions: female, A/J, mouse
Description: Briefly, liver and brain tissues (500 and 400 mg, respectively) from each animal were homogenized in 3 ml PBS (pH 7.4) containing 200 μl of 0.5 M sodium acetate, and extracted with ethyl acetate. After evaporation of the pooled extracts, the residue was reconstituted in 100 μl acetonitrile and analyzed by UPLC using Shimadzu UPLC system (Kyoto, Japan), with a Shim-Pack XR-ODS II reverse phase column (Shimadzu; 150×3.0 mm i.d., 2.2 μm).

Compound: CC1=C(CO)C(=O)O[C@@H]([C@@H](C)[C@H]2CC[C@H]3[C@@H]4C[C@H]5O[C@]56[C@@H](O)C=CC(=O)[C@]6(C)[C@H]4CC[C@]23C)C1 [withaferin A]
lung DBP-DNA adduct levels (DBP-DNA adducts): reduction in the DNA adduct levels
total dose administered via the implants ([1]; calculated from residual amount in the implants, versus 5.6 mg i.p.): 2.69 mg
reduction in the growth of the tumor ([1]; coated implants, two 1.5-cm, 5% drug load): 51%
body weight versus sham ([1]; end of the 8-week study, implants): essentially the same body weight
reduction of the tumor ([1]; intraperitoneally 4 mg/kg): no reduction
inhibition of the tumor ([1]; intraperitoneally 8 mg/kg on alternate days): 53%
burst release and local toxicity [2]: burst release phenomenon and sign of local toxicity

Compound: CC(=O)OC(C)(C)/C=C/C(=O)[C@](C)(O)[C@H]1[C@H](O)C[C@@]2(C)[C@@H]3CC=C4[C@H](C[C@H](O)C(=O)C4(C)C)[C@]3(C)C(=O)C[C@]12C [cucurbitacin B]
burst release and local toxicity [2]: burst release phenomenon and sign of local toxicity

Compound: vitamin E
reduction in breast cancer incidence (breast cancer incidence): 43%

Compound: COc1cc(/C=C/C(O)=C/C(=O)/C=C/c2ccc(O)cc2)ccc1O [curcuminoid II, demethoxycurcumin]
concentration at 21 days ([6]; in vivo): 1 ng/g

Compound: O=C(/C=C/c1ccc(O)cc1)CC(=O)/C=C/c1ccc(O)cc1 [curcuminoid III, bisdemethoxycurcumin]
concentration at 21 days ([6]; brain, subcutaneous, 2 1.5 cm implants (60 mg/implant, approximately 10% drug load), delivered individually by implant, 21 days, read-out: level in brain tissue): 6.4 ng/g
concentration at 21 days ([6]; liver, subcutaneous, 2 1.5 cm implants (60 mg/implant, approximately 10% drug load), delivered individually, two 1.5-cm implants, 21 days, read-out: level in the liver): 5 to 6 ng/g

The next lines start with results.

release in PBS alone ([3]; 37° C., no serum): essentially no release
cumulative release after 60 days ([3]; in vitro): ~27%
cumulative release over 3 weeks (21 days) ([3]; in vitro, PBS with 10% bovine serum): about 12%
total release in vivo at the end of 3 weeks [4]: 18.6%
Compound: Cc1c(-c2cnccn2)ssc1=S [oltipraz]
lung DBP-DNA adduct levels (DBP-DNA adducts): reduction was statistically significant
release kinetics ([3]; PBS with 10% bovine serum, 60 days): essentially zero-order kinetics
DNA adducts in the liver (DNA adducts in the liver): reduced the amount of B[a]P-induced DNA adducts

amount delivered per implant over the study ([5]; rat, in vivo): 1.48±0.87 mg per implant
Compound: O=c1oc2c(O)c(O)cc3c(=O)oc4c(O)c(O)cc1c4c23 [ellagic acid]
reduction in tumor burden (tumor volume) ([5]; 3 cm silastic implant, 27 mg agent, six months): 55%
tumor multiplicity ([5]; diet): 4.80±0.4 tumors/rat
delay of first tumor appearance ([5]; diet 400 ppm): 3 weeks
animals that developed palpable tumors ([5]; diet 400 ppm): 69%
tumor burden ([5]; dietary 400 ppm): 269±61 mm^3
tumor multiplicity ([5]; implant): 4.00±0.63 tumors/rat
tumor burden ([5]; implant (slow release)): 454±105 mm^3
animals that developed palpable tumors ([5]; implants): 75%
delay of first tumor appearance ([5]; silastic implants, 27 mg/implant, 4 implants): 2 weeks
